Experiments:
VIS/NIR absorption = type: physicochemical; conditions: H2O
[1] = in DMSO; according to Benson and Kues 1977; cited from earlier work

SMILES	Absorption λmax (VIS/NIR absorption)	Absorption coefficient ξ at λmax (VIS/NIR absorption; 748 nm)	Fluorescence quantum yield Q (standard) [1]
CC(=O)c1ccc2c(c1)C(C)(C)C(C=CC=CC=CC=C1N(CCCCS(=O)(=O)[O-])c3ccccc3C1(C)C)=[N+]2CCCCS(=O)(=O)[O-].[Na+] [compound 1, 5-(1-oxoethyl)-1,1′-(4-sulfobutyl)-indotricarbocyanine-sodium salt]	748 nm	14,800 1 mol^−1 cm^−1	–
CC1(C)C(/C=C/C=C/C=C/C=C2\N(CCCCS(=O)(=O)O)c3ccc4ccccc4c3C2(C)C)=[N+](CCCCS(=O)(=O)[O-])c2ccc3ccccc3c21 [indocyanine green]	–	–	13%
